The values that follow come from patent publication US9549556B2, “Macrocyclic picolinamides as fungicides” (DOW AGROSCIENCES LLC, priority 2013, dated 2017).

Read-outs that look alike come from different tables or passages of the source.

Data set [1] concerns Cercospora beticola. Kind of data set: Leaf spot of sugar beets (CERCBE) disease control. Format: in vivo. To be noted: 1 DP, 100 ppm, sugar beet.
The subject of data set [2] is Colletotrichum lagenarium. The data set can be described thus: Cucumber anthracnose (COLLLA) disease control. Format: in vivo, Glomerella lagenarium (anamorph Colletotrichum lagenarium). As to conditions: 1 DP, 100 ppm.
For data set [3], the system named is Leptosphaeria nodorum. Kind of data set: Wheat glume blotch (LEPTNO) disease control. It counts as in vivo. To be noted: 1 DP, 100 ppm.
In data set [4] the test system is Rhyncosporium secalis. Kind of data set: Barley scald (RHYNSE) disease control. It counts as in vivo. To be noted: 1 DP, 100 ppm.
The test system of data set [5] is Puccinia triticina. The data set can be described thus: Wheat brown rust (PUCCRT) disease control on wheat seedlings. To be noted: read-out: PUCCRT disease control rating (% Control); for pest or weed control at 121.5 g/ha: 121.5 g/H, low volume (track spray) application; for pest or weed control at 100 ppm: high volume application. Format: in vivo.
Data set [6] relates to Uncinula necator. The data set can be described thus: Grape powdery mildew (UNCINE) disease control. Format: in vivo. As to conditions: 1 DP, 100 ppm.
The test system of data set [7] is Pyricularia oryzae. It counts as in vivo, Magnaporthe grisea (anamorph Pyricularia oryzae). To be noted: 1 DP, 100 ppm, rice.
Data set [8] relates to Alternaria solani. The data set can be described thus: Tomato early blight (ALTESO) disease control. It counts as in vivo. As to conditions: 1 DP, 100 ppm.
Data set [9] has as its system Erysiphe cichoracearum. Kind of data set: Powdery mildew of cucumber (ERYSCI) disease control. Format: in vivo. To be noted: 1 DP, 100 ppm.
Data set [10] has as its system Blumeria graminis f. sp. hordei. Kind of data set: Barley powdery mildew (ERYSGH) disease control. Format: in vivo. As to conditions: 1 DP, 100 ppm.
The subject of data set [11] is Septoria tritici. Kind of data set: Leaf blotch of wheat (SEPTTR) disease control on wheat seedlings. It counts as in vivo, Mycosphaerella graminicola (anamorph Septoria tritici). As to conditions: Zymoseptoria tritici, read-out: SEPTTR disease control rating (% Control); for pest or weed control at 121.5 g/ha: 121.5 g/H, low volume (track spray) application; for pest or weed control at 100 ppm: high volume application. As for the experimental part:
Evaluation of Fungicidal Activity: Leaf Blotch of Wheat (Mycosphaerella graminicola; Anamorph: Septoria tritici; Bayer Code […]) Technical grades of materials were dissolved in acetone, which were then mixed with nine volumes of water containing 110 ppm Triton X-100. The fungicide solutions were applied onto wheat seedlings using an automated booth sprayer to run-off. All sprayed plants were allowed to air dry prior to further handling. All fungicides were evaluated using the aforementioned method for their activity vs. all target diseases. Wheat leaf blotch and brown rust activity were also evaluated using track spray applications, in which case the fungicides were formulated as EC formulations, containing 0.1% Trycol 5941 in the spray solutions. Wheat plants (variety Yuma) were grown from seed in a greenhouse in 50% mineral soil/50% soil-less Metro mix until the first leaf was fully emerged, with 7-10 seedlings per pot. These plants were inoculated with an aqueous spore suspension of Septoria tritici either prior to or after fungicide treatments. After inoculation the plants were kept in 100% relative humidity (one day in a dark dew chamber followed by two to three days in a lighted dew chamber at 20° C.) to permit spores to germinate and infect the leaf. The plants were then transferred to a greenhouse set at 20° C. for disease to develop. When disease symptoms were fully expressed on the 1st leaves of untreated plants, infection levels were assessed on a scale of 0 to 100 percent disease severity. Percent disease control was calculated using the ratio of disease severity on treated plants relative to untreated plants.

Consider `CCCC[C@H]1[C@H](C)OC(=O)[C@@H](NC(=O)c2nccc(OC)c2OCOC(C)=O)COC[C@@H]1OCC1CC1` [Compound 6], for which, in data set [1], the “CERCBE disease control rating (% Control)” value is listed as “A (>70)”. Further, the “COLLLA disease control rating (% Control)” value in data set [2] is “A (>70)”. Also, the “LEPTNO disease control rating (% Control)” value in data set [3] is “A (>70)”. In addition, the “RHYNSE disease control rating (% Control)” value in data set [4] is “A (>70)”. For the same compound, the pest or weed control at 121.5 g/ha in data set [5] (24 h, 1DP (1 Day Protectant)) is above 70%; in [5] (72 h, 3DC (3 Day Curative)) it was above 70%; in [11] (24 h, 1DP (1 Day Protectant)), above 70%; in data set [11] (72 h, 3DC (3 Day Curative)), above 70%. In [6], the “UNCINE disease control rating (% Control)” value is “A (>70)”. In [7], the “PYRIOR disease control rating (% Control)” value was “A (>70)”. Moreover, the “ALTESO disease control rating (% Control)” value in data set [8] is recorded as “B (≦70)”. For the same compound, the “ERYSCI disease control rating (% Control)” value in data set [9] is “A (>70)”. Further, the “ERYSGH disease control rating (% Control)” value in [10] is “A (>70)”.

Regarding `CCCC[C@H]1[C@H](C)OC(=O)[C@@H](NC(=O)c2nccc(OC)c2OC(C)=O)COC[C@@H]1OCC1CC1` [Compound 9], in data set [1], the “CERCBE disease control rating (% Control)” value is listed as “B (≦70)”. For the same compound, the “COLLLA disease control rating (% Control)” value in [2] was “A (>70)”. In addition, in data set [3], the “LEPTNO disease control rating (% Control)” value is “A (>70)”. The “RHYNSE disease control rating (% Control)” value in data set [4] was “A (>70)”. For the same compound, the pest or weed control at 121.5 g/ha is above 70% in [5] (24 h, 1DP (1 Day Protectant)); above 70% in data set [5] (72 h, 3DC (3 Day Curative)); above 70% in data set [11] (24 h, 1DP (1 Day Protectant)); above 70% in data set [11] (72 h, 3DC (3 Day Curative)). Besides, the “UNCINE disease control rating (% Control)” value in [6] is recorded as “A (>70)”. The “PYRIOR disease control rating (% Control)” value in [7] is listed as “B (≦70)”. In data set [8], the “ALTESO disease control rating (% Control)” value is “B (≦70)”. In addition, the “ERYSCI disease control rating (% Control)” value in [9] was “B (≦70)”. Further, the “ERYSGH disease control rating (% Control)” value in data set [10] is reported as “B (≦70)”.

As a reminder, the melting point is the temperature, or range, at which the solid turns liquid. Take `COc1ccnc(C(=O)N[C@H]2COC[C@H](OCc3ccccc3)[C@@H](CCC(C)C)[C@H](C)OC2=O)c1OC(C)=O` [Compound 67]: the melting point was 55 to 61 °C. In addition, the pest or weed control at 121.5 g/ha in data set [5] (24 h, 1DP (1 Day Protectant)) was above 70%. In addition, in [5] (72 h, 3DC (3 Day Curative)), the pest or weed control at 121.5 g/ha was above 70%. Further, the pest or weed control at 121.5 g/ha in data set [11] (24 h, 1DP (1 Day Protectant)) was above 70%. Also, the pest or weed control at 121.5 g/ha in data set [11] (72 h, 3DC (3 Day Curative)) is above 70%.

For `COc1ccnc(C(=O)N[C@H]2COC[C@H](OCC(C)C)[C@@H](Cc3ccccc3)[C@H](C)OC2=O)c1OC(C)=O` [Compound 79], the melting point lay within 52 to 57 °C. For the same compound, the pest or weed control at 121.5 g/ha in data set [5] (24 h, 1DP (1 Day Protectant)) was above 70%. Besides, the pest or weed control at 121.5 g/ha in data set [5] (72 h, 3DC (3 Day Curative)) is above 70%. The pest or weed control at 121.5 g/ha in [11] (24 h, 1DP (1 Day Protectant)) was above 70%. The pest or weed control at 121.5 g/ha in data set [11] (72 h, 3DC (3 Day Curative)) is above 70%.

On to `COc1ccnc(C(=O)N[C@H]2COC[C@H](OCC3CC3)[C@@H](Cc3ccccc3)[C@H](C)OC2=O)c1OC(C)=O` [Compound 87], for which the melting point lay within 54 to 59 °C. Besides, in [5] (24 h, 1DP (1 Day Protectant)), the pest or weed control at 100 ppm was above 70%. The pest or weed control at 100 ppm in data set [5] (72 h, 3DC (3 Day Curative)) is above 70%. Besides, the pest or weed control at 100 ppm in data set [11] (24 h, 1DP (1 Day Protectant)) was above 70%. Moreover, the pest or weed control at 100 ppm in [11] (72 h, 3DC (3 Day Curative)) is above 70%.
